Experimental data reported in patent US12187773B2, “Modified GIP peptide analogues” (Antag Therapeutics ApS, priority 2018, dated 2025).
Where a SMILES comes first, the peptide text is derived from it. Where no end group is shown, it is not given here. The star is where a group is joined. C16 diacid = O=C(O)CCCCCCCCCCCCCCC(=O)*

Experiments:
Assay type in all cases: cell-based
[1] = target: T1, human GIP receptor (Homo sapiens, UniProt P48546); experiment: cAMP agonism (CisBio cAMP Dynamic 2 HTRF assay); details: HEK293, read-out: cAMP agonism, % Efficacy, Table 1C, HEK-293 cells
T1 sequence (P48546 22-466): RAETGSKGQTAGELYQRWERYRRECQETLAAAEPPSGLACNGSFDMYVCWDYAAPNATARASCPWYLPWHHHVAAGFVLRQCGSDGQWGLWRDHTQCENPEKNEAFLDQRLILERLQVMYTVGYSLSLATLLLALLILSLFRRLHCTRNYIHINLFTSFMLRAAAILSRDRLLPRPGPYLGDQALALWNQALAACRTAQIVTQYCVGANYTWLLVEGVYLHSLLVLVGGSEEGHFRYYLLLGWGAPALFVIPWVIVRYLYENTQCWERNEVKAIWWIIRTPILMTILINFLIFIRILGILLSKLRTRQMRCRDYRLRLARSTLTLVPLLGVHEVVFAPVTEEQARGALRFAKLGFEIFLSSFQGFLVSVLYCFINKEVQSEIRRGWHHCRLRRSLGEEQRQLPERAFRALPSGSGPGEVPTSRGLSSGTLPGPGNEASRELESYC
Protocol: To test for agonistic properties at the GIP receptor, compounds were diluted and added to cells as described above and incubated for 30 min at 37° C. The resulting increase in intracellular cAMP was determined using the CisBio cAMP Dynamic 2 HTRF Assay Kit as described above.

[2] = target: T1, human GIP receptor; experiment: cAMP accumulation, agonism (DiscoveRx HitHunter cAMP XS assay); parameters: host or cells: COS-7 (transient, calcium phosphate; pCMV-Script vector); details: COS-7, read-out: cAMP agonism, Emax
Protocol: (§1) Transient transfected COS-7 cells expressing the human GIP receptor were seeded in white 96-well plates with a density of 3.5*10^4/well. The day after, the cells were washed twice with Hepes buffered saline (HBS) buffer and incubated with HBS and 1 mM 3-isobutyl-1-methylxanthine (IBMX) for 30 min at 37° C. To test for agonistic properties, ligands were added and incubated for 30 min at 37° C. In order to test for antagonistic properties, the cells were preincubated with the antagonists for 10 min prior to the addition of the agonist and subsequent incubated for 20 additional min. The HitHunter™ cAMP XS assay (DiscoveRx) was carried out according to the manufacturer's instructions.
(§2) In order to develop a GIP receptor antagonist with improved antagonistic properties, individual amino acid substitutions were conducted on GIP(3-30)NH2 and in particular at positions: 16, 18, 30 or 3, 16, 18, 30. The obtained peptides were lipidated at position 18 directly or via a linker. Both the agonistic and antagonistic profiles of the compounds were tested in cAMP accumulation experiments done in transiently transfected COS-7 cells expressing the human GIP receptor. To investigate if these mutated analogues still retained their antagonistic properties, their ability to inhibit a GIP-mediated cAMP response corresponding to 50-80% of maximum activation was examined.

[3] = target: T1, human GIP receptor; experiment: cAMP antagonism (CisBio cAMP Dynamic 2 HTRF assay); parameters: pCMV-Script vector; details: Table 1C; CisBio; HEK-293 cells
Protocol: The in vitro functional activity of compounds towards human GIP receptor can also be determined in HEK-293 cells transiently expressing the receptor. On the day of the assay, cells were resuspended in HBSS buffer (Gibco, 14025-50) supplemented with 20 mM HEPES (Gibco, 15630-106), 0,1% Pluronic F-68 (Gibco, 24040-032) and 0,1% casein (Sigma, C4765), and plated in 384-well plates at a density of 5000 cells/well. The GIP peptide analogues of the present disclosure were diluted in HBSS buffer supplemented with 20 mM HEPES, 0,1% pluronic, 0,1% casein and 500 uM IBMX. […] The resulting decrease in intracellular cAMP was quantitatively determined using the CisBio cAMP Dynamic 2 HTRF Assay Kit. The assay is based on a competition between native cAMP produced by cells and cAMP labeled with the dye d2 for binding to a cryptate labeled antibody. The specific signal (i.e. energy transfer signal) is inversely proportional to the concentration of cAMP in the sample.
The cAMP-d2 conjugate and the antibody anti-cAMP-Cryptate, both diluted in lysis buffer provided in the kit, were added to the cells according to the manufacturer's protocol. The resulting competitive assay was incubated for 60 minutes at room temperature, and the signal was detected by using a PerkinElmer Envision® instrument with excitation at 320 nm and emission at 665 nm and 620 nm. The HTRF ratio (emission at 665 nm/620 nm*10,000) is inversely proportional to the amount of cAMP present and is converted to nM cAMP per well using a cAMP standard curve. The dose-response curves were fitted using the non-linear regression analysis (four-logistic parameter equation) in GraphPad Prism, whereby pIC50 values were estimated.

[4] = target: T1, human GIP receptor; experiment: cAMP accumulation, antagonism (DiscoveRx HitHunter cAMP XS assay); parameters: host or cells: COS-7 (transient, calcium phosphate; pCMV-Script vector); details: Table 2, truncated GIP antagonists
Protocol: as §1, §2

Compound	Emax [1]	Emax [2]	cAMP antagonism, % inhib [3]	cAMP antagonism, % inhib [4]	IC50 ([4]; cAMP antagonism, nM (IC50))	cAMP antagonism, nM (IC50) [4]
CC[C@H](C)[C@H](NC(=O)[C@H](CO)NC(=O)[C@H](Cc1ccc(O)cc1)NC(=O)[C@H](CC(=O)O)NC(=O)[C@H](CO)NC(=O)[C@@H](NC(=O)[C@H](Cc1ccccc1)NC(=O)[C@@H](N)[C@@H](C)O)[C@@H](C)CC)C(=O)N[C@@H](C)C(=O)N[C@@H](CC(C)C)C(=O)N[C@@H](CC(=O)O)C(=O)N[C@@H](CCCNC(=N)N)C(=O)N[C@H](C(=O)N[C@@H](CCCCNC(=O)CC[C@H](NC(=O)COCCOCCNC(=O)CCCCCCCCCCCCCCC(=O)O)C(=O)O)C(=O)N[C@@H](CCC(N)=O)C(=O)N[C@@H](CCC(N)=O)C(=O)N[C@@H](CC(=O)O)C(=O)N[C@@H](Cc1ccccc1)C(=O)N[C@H](C(=O)N[C@@H](CC(N)=O)C(=O)N[C@@H](Cc1c[nH]c2ccccc12)C(=O)N[C@@H](CC(C)C)C(=O)N[C@@H](CC(C)C)C(=O)N[C@@H](C)C(=O)N[C@@H](CCC(N)=O)C(=O)N[C@@H](CCCNC(=N)N)C(N)=O)C(C)C)[C@@H](C)CC [AT234] (HELM PEPTIDE1{T.F.I.S.D.Y.S.I.A.L.D.R.I.K.Q.Q.D.F.V.N.W.L.L.A.Q.R.[am]}|PEPTIDE2{[O=C(O)CCCCCCCCCCCCCCC(=O)[*:2]].[O=C(COCCOCCN[*:1])[*:2]].[gGlu]}$PEPTIDE1,PEPTIDE2,14:R3-3:R2$$$V2.0; N-terminus assumed)	0%	26%	–	–	–	–
CC[C@H](C)[C@H](NC(=O)[C@H](CO)NC(=O)[C@H](Cc1ccc(O)cc1)NC(=O)[C@H](CC(=O)O)NC(=O)[C@H](CO)NC(=O)[C@@H](NC(=O)[C@H](Cc1ccccc1)NC(=O)[C@@H](NC(=O)CNC(=O)CN)[C@@H](C)O)[C@@H](C)CC)C(=O)N[C@@H](C)C(=O)N[C@@H](CCSC)C(=O)N[C@@H](CC(=O)O)C(=O)N[C@@H](CCCNC(=N)N)C(=O)N[C@H](C(=O)N[C@@H](CCCCNC(=O)CCCCCCCCCCCCCCC(=O)O)C(=O)N[C@@H](CCC(N)=O)C(=O)N[C@@H](CCC(N)=O)C(=O)N[C@@H](CC(=O)O)C(=O)N[C@@H](Cc1ccccc1)C(=O)N[C@H](C(=O)N[C@@H](CC(N)=O)C(=O)N[C@@H](Cc1c[nH]c2ccccc12)C(=O)N[C@@H](CC(C)C)C(=O)N[C@@H](CC(C)C)C(=O)N[C@@H](C)C(=O)N[C@@H](CCC(N)=O)C(=O)N[C@@H](CCCNC(=N)N)C(=O)O)C(C)C)[C@@H](C)CC [AT257] (H-GGTFISDYSIAMDRIK(C16 diacid)QQDFVNWLLAQR-OH; N-terminus assumed)	5%	4%	–	–	–	–
CC[C@H](C)[C@H](N)C(=O)N[C@@H](CO)C(=O)N[C@@H](CC(=O)O)C(=O)N[C@@H](Cc1ccc(O)cc1)C(=O)N[C@@H](CO)C(=O)N[C@H](C(=O)N[C@@H](C)C(=O)N[C@@H](CCSC)C(=O)N[C@@H](CC(=O)O)C(=O)N[C@@H](CCCCN)C(=O)N[C@H](C(=O)N[C@@H](CCCCNC(=O)CCCCCCCCCCCCCCC(=O)O)C(=O)N[C@@H](CCC(N)=O)C(=O)N[C@@H](CCC(N)=O)C(=O)N[C@@H](CC(=O)O)C(=O)N[C@@H](Cc1ccccc1)C(=O)N[C@H](C(=O)N[C@@H](CC(N)=O)C(=O)N[C@@H](Cc1c[nH]c2ccccc12)C(=O)N[C@@H](CC(C)C)C(=O)N[C@@H](CC(C)C)C(=O)N[C@@H](C)C(=O)N[C@@H](CCC(N)=O)C(=O)N[C@@H](CCCCN)C(N)=O)C(C)C)[C@@H](C)CC)[C@@H](C)CC [AT354] (H-ISDYSIAMDKIK(C16 diacid)QQDFVNWLLAQK-NH2; N-terminus assumed)	0%	–	91%	100.0%	10 nM	–
CC[C@H](C)[C@H](NC(=O)[C@H](CO)NC(=O)[C@H](Cc1ccc(O)cc1)NC(=O)[C@H](CC(=O)O)NC(=O)[C@@H](N)CO)C(=O)N[C@@H](C)C(=O)N[C@@H](CCSC)C(=O)N[C@@H](CC(=O)O)C(=O)N[C@@H](CCCCN)C(=O)N[C@H](C(=O)N[C@@H](CCCCNC(=O)CCCCCCCCCCCCCCC(=O)O)C(=O)N[C@@H](CCC(N)=O)C(=O)N[C@@H](CCC(N)=O)C(=O)N[C@@H](CC(=O)O)C(=O)N[C@@H](Cc1ccccc1)C(=O)N[C@H](C(=O)N[C@@H](CC(N)=O)C(=O)N[C@@H](Cc1c[nH]c2ccccc12)C(=O)N[C@@H](CC(C)C)C(=O)N[C@@H](CC(C)C)C(=O)N[C@@H](C)C(=O)N[C@@H](CCC(N)=O)C(=O)N[C@@H](CCCCN)C(N)=O)C(C)C)[C@@H](C)CC [AT355] (H-SDYSIAMDKIK(C16 diacid)QQDFVNWLLAQK-NH2; N-terminus assumed)	0%	–	65%	100.0%	–	–
CC[C@H](C)[C@H](NC(=O)[C@H](CO)NC(=O)[C@@H](N)Cc1ccc(O)cc1)C(=O)N[C@@H](C)C(=O)N[C@@H](CCSC)C(=O)N[C@@H](CC(=O)O)C(=O)N[C@@H](CCCCN)C(=O)N[C@H](C(=O)N[C@@H](CCCCNC(=O)CCCCCCCCCCCCCCC(=O)O)C(=O)N[C@@H](CCC(N)=O)C(=O)N[C@@H](CCC(N)=O)C(=O)N[C@@H](CC(=O)O)C(=O)N[C@@H](Cc1ccccc1)C(=O)N[C@H](C(=O)N[C@@H](CC(N)=O)C(=O)N[C@@H](Cc1c[nH]c2ccccc12)C(=O)N[C@@H](CC(C)C)C(=O)N[C@@H](CC(C)C)C(=O)N[C@@H](C)C(=O)N[C@@H](CCC(N)=O)C(=O)N[C@@H](CCCCN)C(N)=O)C(C)C)[C@@H](C)CC [AT357] (H-YSIAMDKIK(C16 diacid)QQDFVNWLLAQK-NH2; N-terminus assumed)	0%	–	40%	100.0%	–	–
AT356: GIP 9-30, C-term NH2, C16-diacid at position 18, [H18K] (DYSIAMDKIK(C16 diacid)QQDFVNWLLAQK-NH2; N-terminus assumed; SMILES CC[C@H](C)[C@H](NC(=O)[C@H](CO)NC(=O)[C@H](Cc1ccc(O)cc1)NC(=O)[C@@H](N)CC(=O)O)C(=O)N[C@@H](C)C(=O)N[C@@H](CCSC)C(=O)N[C@@H](CC(=O)O)C(=O)N[C@@H](CCCCN)C(=O)N[C@H](C(=O)N[C@@H](CCCCNC(=O)CCCCCCCCCCCCCCC(=O)O)C(=O)N[C@@H](CCC(N)=O)C(=O)N[C@@H](CCC(N)=O)C(=O)N[C@@H](CC(=O)O)C(=O)N[C@@H](Cc1ccccc1)C(=O)N[C@H](C(=O)N[C@@H](CC(N)=O)C(=O)N[C@@H](Cc1c[nH]c2ccccc12)C(=O)N[C@@H](CC(C)C)C(=O)N[C@@H](CC(C)C)C(=O)N[C@@H](C)C(=O)N[C@@H](CCC(N)=O)C(=O)N[C@@H](CCCCN)C(N)=O)C(C)C)[C@@H](C)CC)	–	–	–	–	–	No antagonism
